Measurements published in US6727284B2 (priority 1997, dated 2004).
“Also recorded” adds a separate entry of the source.

Key:
[1] = Plasma DCA levels by HPLC in pediatric patients given bolus plus 24 h infusion after cardiopulmonary bypass; assay type: in vivo, human; conditions: bolus 100 mg/kg into proximal aorta, then infusion 12.5 mg/kg/hr for 24 hours, therapeutic range 0.2-1 mM, FIG. 1
Experimental: This example describes the use of dichloroacetate administered in a bolus followed by infusion for 24 hrs in pediatric patients after cardiopulmonary bypass.
DCA, in a bolus of 100 mg/kg of 10 mg/ml solution ([…] bolus) is injected into the proximal aorta immediately prior to discontinuing the aortic cross-clamp. Immediately thereafter, an infusion of DCA at 12.5 mg/kg/hr is initiated and run for 24 hours or longer. Based on the pharmacokinetics of DCA, this dosage regiment is designed to continuous maintain plasma levels of DCA in the therapeutic range of [0.2-1 mM]—in contrast to transient therapeutic levels.
Blood samples are collected from the indwelling lines of patients in citrate-containing tubes. These samples are centrifuged to separate the plasma and frozen. The frozen samples are later analyzed for DCA concentration by using a high performance liquid chromatography technique (HPLC). See generally Thannikkuto et al., “Dichloracetate (DCA) stimulates pyruvate dehydrogenase complex (PDC) activity in hearts of patients undergoing coronary artery bypass grafting (CABG)” Can. J. Cardiol. 10(suppl. C):130C (1994). Briefly, the analysis was performed on a lonoSpher A (250×4.6 mm L X ID) column accompanied by a guard column AX. Both of the columns were purchased from Chrompack Canada. The mobile phase used was 10^−3 M pyromellitate buffer (pH 3.8-4.0) at a flow rate of […]. […]

[2] = Side-effects of dichloroacetate in patients; assay type: in vivo, human
Source text: Higher dosages are permitted.

[3] = cited from earlier work

In the case of `O=C(O)C(Cl)Cl` [dichloroacetate], the “patient blood (plasma) levels of dichloroacetate” value [1] is reported as “continuously maintained patient blood levels of dichloroacetate in the therapeutic range”, the “patient blood (plasma) levels of dichloroacetate” value ([1]; listed as dichloro acetate) is reported as “maintained. at high (and therefore therapeutic) levels over a 24 hour period” and the side-effects [2] is reported as “does not have significant sideeffects; also recorded: some patients experience mild drowsiness”. For the same compound, the half-life ([3]; in vivo) was “approximately 40 minutes” and the “time blood levels stay in the therapeutic range” value ([3]; single bolus administration) was “less than one hour”.
